Activity calls are given as the source filed them. The calls are words filed in the database; no cut-off is given here.
Columns and labels:
[1] = target: T1, P2X purinoceptor 7 (Homo sapiens) (UniProt Q99572); test: Antagonist activity at human P2X7 receptor expressed in HEK293 cells assessed as inhibition of BzATP-induced EtBr uptake at 10 uM after 2 hrs by fluorescence assay relative to control; assay type: cell-based
T1 sequence (whole entry): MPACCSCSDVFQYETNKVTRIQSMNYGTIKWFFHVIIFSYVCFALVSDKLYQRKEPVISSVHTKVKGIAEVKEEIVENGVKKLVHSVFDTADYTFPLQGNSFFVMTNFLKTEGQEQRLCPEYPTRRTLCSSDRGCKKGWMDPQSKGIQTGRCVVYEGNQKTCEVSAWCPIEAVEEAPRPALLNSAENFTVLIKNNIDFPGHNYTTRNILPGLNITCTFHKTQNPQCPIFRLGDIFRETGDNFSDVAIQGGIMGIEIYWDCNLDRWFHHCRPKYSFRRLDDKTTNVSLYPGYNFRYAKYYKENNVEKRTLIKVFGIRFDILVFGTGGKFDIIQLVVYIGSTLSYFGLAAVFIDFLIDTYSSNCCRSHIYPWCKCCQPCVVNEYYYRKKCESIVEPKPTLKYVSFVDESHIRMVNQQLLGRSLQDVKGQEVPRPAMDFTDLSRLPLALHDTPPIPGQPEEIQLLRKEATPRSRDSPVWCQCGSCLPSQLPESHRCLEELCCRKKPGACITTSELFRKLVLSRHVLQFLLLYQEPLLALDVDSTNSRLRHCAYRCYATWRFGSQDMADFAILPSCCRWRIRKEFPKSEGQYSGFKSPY

[2] = target: T1, P2X purinoceptor 7 (Homo sapiens); test: Antagonist activity at human P2X7 receptor expressed in HEK293 cells assessed as inhibition of BzATP-induced EtBr uptake at 1 uM after 2 hrs by fluorescence assay relative to control; assay type: cell-based
P2X purinoceptor 7 [3] = target: T2, P2X purinoceptor 7 (Homo sapiens, UniProt Q99572); test: Antagonist activity at human P2X7 receptor expressed in HEK293 cells assessed as inhibition of BzATP-induced EtBr uptake after 2 hrs by fluorescence assay relative to control; assay type: cell-based
T2 sequence (Q99572 whole entry): T1 sequence (whole entry)

P2X purinoceptor 7 [4] = target: T2, P2X purinoceptor 7; test: Antagonist activity at P2X7 in LPS/IFN gamma differentiated human THP-1 cells assessed as inhibition of BzATP-induced IL-1beta release preincubated for 30 mins followed by BzATP stimulation for 30 mins by ELISA; assay type: cell-based
[5] = target: T3, P2X purinoceptor 1 (Homo sapiens) (UniProt P51575); test: Antagonist activity at human P2X1 receptor expressed in 1321N1 cells assessed as inhibition of ATP-induced calcium flux at 1 uM measured for 30 secs at 0.4 secs intervals by Flou-4-AM dye based fluorescence assay relative to control; assay type: cell-based
T3 sequence (whole entry): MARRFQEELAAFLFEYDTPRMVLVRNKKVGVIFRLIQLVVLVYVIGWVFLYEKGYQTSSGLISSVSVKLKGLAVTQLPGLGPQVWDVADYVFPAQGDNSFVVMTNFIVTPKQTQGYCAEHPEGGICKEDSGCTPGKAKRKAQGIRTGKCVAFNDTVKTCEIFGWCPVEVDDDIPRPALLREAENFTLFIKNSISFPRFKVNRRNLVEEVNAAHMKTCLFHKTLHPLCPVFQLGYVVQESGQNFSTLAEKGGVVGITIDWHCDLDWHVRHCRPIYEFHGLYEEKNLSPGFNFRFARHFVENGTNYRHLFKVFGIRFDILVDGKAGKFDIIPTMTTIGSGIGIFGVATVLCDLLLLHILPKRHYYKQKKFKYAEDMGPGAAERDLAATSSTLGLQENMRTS

[6] = target: T4, P2X purinoceptor 2 (Homo sapiens) (UniProt Q9UBL9); test: Antagonist activity at human P2X2 receptor expressed in 1321N1 cells assessed as inhibition of ATP-induced calcium flux at 1 uM measured for 30 secs at 0.4 secs intervals by Flou-4-AM dye based fluorescence assay relative to control; assay type: cell-based
T4 sequence (whole entry): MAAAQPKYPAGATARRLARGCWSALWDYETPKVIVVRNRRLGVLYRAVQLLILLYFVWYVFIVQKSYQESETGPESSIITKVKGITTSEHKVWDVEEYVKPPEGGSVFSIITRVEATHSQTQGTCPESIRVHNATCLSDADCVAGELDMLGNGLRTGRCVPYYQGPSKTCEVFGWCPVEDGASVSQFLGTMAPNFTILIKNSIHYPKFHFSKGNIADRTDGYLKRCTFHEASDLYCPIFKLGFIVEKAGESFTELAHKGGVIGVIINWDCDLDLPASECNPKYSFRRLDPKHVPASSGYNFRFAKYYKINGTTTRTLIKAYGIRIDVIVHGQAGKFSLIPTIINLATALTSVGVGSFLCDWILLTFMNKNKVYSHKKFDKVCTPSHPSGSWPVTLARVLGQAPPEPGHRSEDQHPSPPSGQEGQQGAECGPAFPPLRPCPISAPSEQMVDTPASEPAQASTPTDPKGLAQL

P2X purinoceptor 3 [7] = target: T5, P2X purinoceptor 3 (Homo sapiens, UniProt P56373); test: Antagonist activity at human P2X3 receptor expressed in 1321N1 cells assessed as inhibition of ATP-induced calcium flux measured for 30 secs at 0.4 secs intervals by Flou-4-AM dye based fluorescence assay; assay type: cell-based; settings: read-out: IC50
T5 sequence (P56373 whole entry): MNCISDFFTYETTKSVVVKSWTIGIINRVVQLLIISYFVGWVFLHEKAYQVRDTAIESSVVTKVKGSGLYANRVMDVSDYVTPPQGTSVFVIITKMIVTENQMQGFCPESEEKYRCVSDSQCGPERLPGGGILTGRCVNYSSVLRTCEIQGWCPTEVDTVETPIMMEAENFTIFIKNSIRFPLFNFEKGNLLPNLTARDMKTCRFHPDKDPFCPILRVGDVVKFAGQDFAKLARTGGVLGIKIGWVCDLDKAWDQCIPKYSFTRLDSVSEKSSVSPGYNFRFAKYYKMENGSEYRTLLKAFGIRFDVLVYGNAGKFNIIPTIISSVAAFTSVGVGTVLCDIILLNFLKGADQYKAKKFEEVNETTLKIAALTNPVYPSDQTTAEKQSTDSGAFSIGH

[8] = target: T6, P2X purinoceptor 4 (Homo sapiens) (UniProt Q99571); test: Antagonist activity at human P2X4 receptor expressed in 1321N1 cells assessed as inhibition of ATP-induced calcium flux at 1 uM measured for 30 secs at 0.4 secs intervals by Flou-4-AM dye based fluorescence assay relative to control; assay type: cell-based
T6 sequence (whole entry): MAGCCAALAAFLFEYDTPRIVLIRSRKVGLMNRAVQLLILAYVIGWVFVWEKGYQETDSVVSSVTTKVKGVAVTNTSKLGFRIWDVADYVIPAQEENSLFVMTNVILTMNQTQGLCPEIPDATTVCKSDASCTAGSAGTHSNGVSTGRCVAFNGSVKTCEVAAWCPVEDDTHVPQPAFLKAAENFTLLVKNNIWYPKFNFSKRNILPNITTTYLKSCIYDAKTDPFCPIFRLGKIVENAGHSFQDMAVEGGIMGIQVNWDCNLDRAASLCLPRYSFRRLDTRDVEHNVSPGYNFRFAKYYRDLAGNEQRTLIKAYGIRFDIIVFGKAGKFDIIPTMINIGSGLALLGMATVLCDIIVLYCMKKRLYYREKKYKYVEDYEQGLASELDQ

Homo sapiens [9] = species: Homo sapiens; test: Antiproliferative activity against human TS15-88 cells at 50 uM after 24 hrs by MTS assay; assay type: functional, cell-based
Homo sapiens [10] = species: Homo sapiens; test: Antiproliferative activity against human TS15-88 cells at 50 uM after 72 hrs by MTS assay; assay type: functional, cell-based
[11] = (§1) Inhibition of neurosphere formation in human TS15-88 cells assessed as decrease in sphere size at 50 uM after 5 days by microscopic analysis relative to control; assay type: functional; settings: 120 h
[12] = Cytotoxicity against HEK293 cells expressing human P2X7 receptor assessed as cell survival at 10 uM by MTT assay relative to control; assay type: cell-based; settings: read-out: Survival
Homo sapiens [13] = species: Homo sapiens; test: as §1; assay type: functional
[14] = Effective permeability of the compound at 50 uM after 4 hrs by BBB-PAMPA method; assay type: ADME; settings: read-out: Peff
[15] = Kinetic solubility of the compound in PAMPA buffer at 50 uM by nepheolometry method; assay type: physicochemical
[16] = Kinetic solubility of the compound in PAMPA buffer at 25 uM by nepheolometry method; assay type: physicochemical
[17] = Kinetic solubility of the compound in PAMPA buffer at 12.5 uM by nepheolometry method; assay type: physicochemical
[18] = Metabolic stability in human liver microsomes assessed as parent compound remaining at 1 uM up to 30 mins in presence of NADPH by LC-MS/MS analysis; assay type: ADME, microsome; settings: read-out: Stability
[19] = Metabolic stability in rat liver microsomes assessed as parent compound remaining at 1 uM up to 30 mins in presence of NADPH by LC-MS/MS analysis; assay type: ADME, microsome; settings: read-out: Stability
[20] = Metabolic stability in mouse liver microsomes assessed as parent compound remaining at 1 uM up to 30 mins in presence of NADPH by LC-MS/MS analysis; assay type: ADME, microsome; settings: read-out: Stability
P2X purinoceptor 1 [21] = target: T7, P2X purinoceptor 1 (Rattus norvegicus, UniProt P47824); test: Antagonist activity at P2X1 receptor in rat vas deferens assessed as inhibition of alphabeta me-ATP-induced response
T7 sequence (P47824 whole entry): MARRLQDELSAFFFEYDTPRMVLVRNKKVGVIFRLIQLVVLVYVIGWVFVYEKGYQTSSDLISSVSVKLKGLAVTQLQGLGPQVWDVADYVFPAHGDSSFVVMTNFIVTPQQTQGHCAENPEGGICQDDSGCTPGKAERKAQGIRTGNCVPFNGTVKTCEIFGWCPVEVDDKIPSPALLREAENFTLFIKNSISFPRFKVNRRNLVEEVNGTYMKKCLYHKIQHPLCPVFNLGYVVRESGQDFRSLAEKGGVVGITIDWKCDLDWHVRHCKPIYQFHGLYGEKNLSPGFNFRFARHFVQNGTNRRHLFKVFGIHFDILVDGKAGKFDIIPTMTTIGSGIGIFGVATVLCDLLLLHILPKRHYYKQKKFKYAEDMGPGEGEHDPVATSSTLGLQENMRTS

P2X purinoceptor 1 [22] = target: P2X purinoceptor 1 (Rattus norvegicus, UniProt P47824); test: Antagonist activity at wild type His6 tagged rat P2X1 receptor expressed in Xenopus laevis oocytes assessed as inhibition of alphabeta-me ATP-induced calcium flux at -60 mV holding potential by two electrode voltage clamp method; assay type: cell-based
P2X purinoceptor 3 [23] = target: T8, P2X purinoceptor 3 (Rattus norvegicus, UniProt P49654); test: Antagonist activity at P2X3 receptor in rat DRG neurons at -70 mV holding potential by whole cell patch clamp method
T8 sequence (P49654 whole entry): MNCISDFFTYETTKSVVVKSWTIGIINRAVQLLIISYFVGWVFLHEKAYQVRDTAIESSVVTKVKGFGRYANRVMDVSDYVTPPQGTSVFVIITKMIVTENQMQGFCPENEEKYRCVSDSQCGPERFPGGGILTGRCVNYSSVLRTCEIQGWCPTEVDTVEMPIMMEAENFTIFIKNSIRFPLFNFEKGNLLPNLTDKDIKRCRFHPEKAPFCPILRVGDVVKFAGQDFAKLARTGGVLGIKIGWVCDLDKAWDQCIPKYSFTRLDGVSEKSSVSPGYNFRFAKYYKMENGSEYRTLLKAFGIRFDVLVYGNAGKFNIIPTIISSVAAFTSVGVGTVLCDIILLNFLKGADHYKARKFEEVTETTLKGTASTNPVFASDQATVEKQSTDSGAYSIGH

COc1ccc(-c2ccc3c(NC(=O)CC45CC6CC(CC(C6)C4)C5)cccc3n2)cc1
inhibition [1]: 97%
inhibition [2]: 89%
IC50 (P2X purinoceptor 7 [3]): 18 nM
IC50 (P2X purinoceptor 7 [4]): 29 nM
inhibition [5]: 25%
inhibition [6]: 3%
IC50 (P2X purinoceptor 3 [7]): 3000 nM
inhibition [8]: 17%
Activity (Homo sapiens [9]): inactive
Activity (Homo sapiens [10]): Active
inhibition at 50 µM [11]: > 50%
viability at 10 µM [12]: 90%

O=C(CC12CC3CC(CC(C3)C1)C2)Nc1cccc2nc(-c3ccc(C(=O)O)cc3)ccc12
inhibition [1]: 93%
inhibition [2]: 87%
IC50 (P2X purinoceptor 7 [3]): 8 nM
IC50 (P2X purinoceptor 7 [4]): 25 nM
Activity (Homo sapiens [9]): inactive
inhibition (Homo sapiens [13]): inactive
viability at 10 µM [12]: 94%
Papp at 4 h, 50 µM [14]: 8.44 to 8.46 ×10⁻⁶ cm/s
Kinetic_solubility [15]: Soluble
Kinetic_solubility [16]: Soluble
Kinetic_solubility [17]: Soluble
remaining at 0.5 h, 1 µM [18]: 40.5%
remaining at 0.5 h, 1 µM [19]: 10.9%
remaining at 0.5 h, 1 µM [20]: 8.1%

Nc1c(S(=O)(=O)O)cc(Nc2ccc(S(=O)(=O)O)c(Nc3nc(Cl)nc(Cl)n3)c2)c2c1C(=O)c1ccccc1C2=O
IC50 (P2X purinoceptor 1 [21]): 4700 nM
IC50 (P2X purinoceptor 1 [22]): 570 nM

O=C(Nc1cc(C(=O)Nc2ccc(S(=O)(=O)O)cc2)cc(C(=O)Nc2ccc(S(=O)(=O)O)cc2)c1)Nc1cc(C(=O)Nc2ccc(S(=O)(=O)O)cc2)cc(C(=O)Nc2ccc(S(=O)(=O)O)cc2)c1
IC50 (P2X purinoceptor 3 [23]): 500 nM

From ChEMBL document CHEMBL4152208, “Synthesis and structure-activity relationships of quinolinone and quinoline-based P2X7 receptor antagonists and their anti-sphere formation activities in glioblastoma cells” (Eur J Med Chem, 2018)
